Laboratory results reported in ChEMBL document CHEMBL1201862, “PubChem BioAssay data set” (2004).
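How tested: cells in 96-well plates exposed to compound for 48 hours at five concentrations. At the GI50, growth is halved.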 Activity calls are given as the source filed them. Rule as the data show it: active = GI50 up to about 1.1 µM and inactive = higher.

Experiments:
Assay in all cases: DTP human tumour cell line panel, 48 h
UACC-62 = tested on: UACC-62
UACC-257 = tested on: UACC-257
NCI/ADR-RES = tested on: NCI/ADR-RES
Malme-3M = tested on: Malme-3M
NCI-H226 = tested on: NCI-H226
K562 = tested on: K562
BT-549 = tested on: BT-549
MDA-MB-435 = tested on: MDA-MB-435
MDA-MB-231 = tested on: MDA-MB-231
EKVX = tested on: EKVX
RPMI-8226 = tested on: RPMI-8226
DU-145 = tested on: DU-145
HL-60 = tested on: HL-60
MDA-N = tested on: MDA-N
CCRF-CEM = tested on: CCRF-CEM
786-0 = tested on: 786-0
SF-539 = tested on: SF-539
KM12 = tested on: KM12
IGROV-1 = tested on: IGROV-1
SN12C = tested on: SN12C

SMILES | GI50 (UACC-62) | GI50 (UACC-257) | GI50 (NCI/ADR-RES) | GI50 (Malme-3M) | GI50 (NCI-H226) | GI50 (K562) | GI50 (BT-549) | GI50 (MDA-MB-435) | GI50 (MDA-MB-231) | GI50 (EKVX) | GI50 (RPMI-8226) | GI50 (DU-145) | GI50 (HL-60) | GI50 (MDA-N) | GI50 (CCRF-CEM) | GI50 (786-0) | GI50 (SF-539) | GI50 (KM12) | GI50 (IGROV-1) | GI50 (SN12C)
CSc1cccc(NC(=O)OC2CCCCCCCCCCC2)c1 | 18.1 µM (inactive) | 16 µM (inactive) | 21.4 µM (inactive) | 24.8 µM (inactive) | 29.9 µM (inactive) | 16.4 µM (inactive) | 34.8 µM (inactive) | 15.7 µM (inactive) | 23.6 µM (inactive) | 19.1 µM (inactive) | 14.7 µM (inactive) | 31.8 µM (inactive) | 14.3 µM (inactive) | 21 µM (inactive) | 16.4 µM (inactive) | 20.9 µM (inactive) | 24.4 µM (inactive) | 13.3 µM (inactive) | 33.4 µM (inactive) | 15.5 µM (inactive)
Cn1c(=O)c2c(ncn2CN2CCN(Cn3cnc4c3c(=O)n(C)c(=O)n4C)CC2)n(C)c1=O | 45.7 µM (inactive) | 47.1 µM (inactive) | > 100 µM (inactive) | 73.6 µM (inactive) | > 100 µM (inactive) | 31.7 µM (inactive) | 62.2 µM (inactive) | 86.5 µM (inactive) | > 100 µM (inactive) | 29.1 µM (inactive) | 22.7 µM (inactive) | 45.7 µM (inactive) | 23 µM (inactive) | 50.2 µM (inactive) | 21.9 µM (inactive) | 29 µM (inactive) | 56.2 µM (inactive) | 92.5 µM (inactive) | 78.5 µM (inactive) | 46.9 µM (inactive)
CCOC(=O)OC1C(Br)C2CCC1(C)C2(C)C (stereo not given) | 17.7 µM (inactive) | 15.9 µM (inactive) | 15.5 µM (inactive) | 16.7 µM (inactive) | 12 µM (inactive) | 5.79 µM (inactive) | 17.2 µM (inactive) | 11.4 µM (inactive) | 11.9 µM (inactive) | 15.5 µM (inactive) | 5.46 µM (inactive) | 18.7 µM (inactive) | 6.21 µM (inactive) | 15 µM (inactive) | 4.88 µM (inactive) | 14.1 µM (inactive) | 14.1 µM (inactive) | 14 µM (inactive) | 18.7 µM (inactive) | 14.4 µM (inactive)
C=C1C(=O)OC2C1C(OC(=O)/C(C)=C/C)CC(O)(CCl)C1C(O)C3OC3(C)C21O (stereo not given) | 34.6 µM (inactive) | > 50 µM (inactive) | > 50 µM (inactive) | 0.735 µM (active) | > 50 µM (inactive) | 18 µM (inactive) | 17.4 µM (inactive) | 48.5 µM (inactive) | > 50 µM (inactive) | > 50 µM (inactive) | 16.1 µM (inactive) | > 50 µM (inactive) | 8.79 µM (inactive) | 26.6 µM (inactive) | 12.4 µM (inactive) | 15.9 µM (inactive) | > 50 µM (inactive) | > 50 µM (inactive) | > 50 µM (inactive) | > 50 µM (inactive)
Cc1cc(=O)[nH]c2c1C(=O)c1c(C)cc(=O)n(C)c1C2=O | 0.0171 µM (active) | 0.0152 µM (active) | 0.0889 µM (active) | 0.00177 µM (active) | 0.0293 µM (active) | 0.122 µM (active) | 0.0228 µM (active) | 0.0142 µM (active) | 0.303 µM (active) | 0.205 µM (active) | 0.33 µM (active) | 0.0238 µM (active) | 0.153 µM (active) | 0.0184 µM (active) | 0.321 µM (active) | 0.0545 µM (active) | 0.0208 µM (active) | 0.0678 µM (active) | 0.202 µM (active) | 0.074 µM (active)
COC(=O)C1=C(C)NC(C)=C(C(=O)OC)C1c1cccc(/[N+]([O-])=C/c2ccccc2)c1 | 28.5 µM (inactive) | 19 µM (inactive) | 23.2 µM (inactive) | 16.3 µM (inactive) | > 100 µM (inactive) | > 10 µM (inactive) | 16.3 µM (inactive) | 19.7 µM (inactive) | 17.5 µM (inactive) | 72.8 µM (inactive) | 24.4 µM (inactive) | 78 µM (inactive) | 15.3 µM (inactive) | 17.6 µM (inactive) | 11 µM (inactive) | 17.7 µM (inactive) | > 100 µM (inactive) | > 100 µM (inactive) | 74.3 µM (inactive) | > 10 µM (inactive)
Clc1ccc2c(NCCCCN3OC3c3ccccc3)ccnc2c1 (stereo not given) | 14.1 µM (inactive) | 18.1 µM (inactive) | 18.5 µM (inactive) | 8.41 µM (inactive) | 18.4 µM (inactive) | 2.44 µM (inactive) | 13.4 µM (inactive) | 4.47 µM (inactive) | 2.27 µM (inactive) | 21.8 µM (inactive) | 2.92 µM (inactive) | 10.4 µM (inactive) | < 0.01 µM (active) | 5.42 µM (inactive) | 2.15 µM (inactive) | 2.47 µM (inactive) | 1.98 µM (inactive) | 7.5 µM (inactive) | 9.27 µM (inactive) | 11.1 µM (inactive)
COC1(OC)CC(CO)(CNc2cc(Cl)nc(N)n2)C1 | > 100 µM (inactive) | 39.1 µM (inactive) | > 100 µM (inactive) | > 100 µM (inactive) | > 100 µM (inactive) | > 100 µM (inactive) | > 100 µM (inactive) | > 100 µM (inactive) | > 100 µM (inactive) | 39.7 µM (inactive) | > 100 µM (inactive) | > 100 µM (inactive) | > 100 µM (inactive) | > 100 µM (inactive) | > 100 µM (inactive) | > 100 µM (inactive) | > 100 µM (inactive) | > 100 µM (inactive) | > 100 µM (inactive) | > 100 µM (inactive)
C=C1c2nc3ccccc3n2C=C(c2ccc(Cl)cc2)N1c1ccc(OCCN2CCCCC2)cc1 | > 45 µM (inactive) | 0.843 µM (active) | > 45 µM (inactive) | 8.41 µM (inactive) | > 100 µM (inactive) | > 45 µM (inactive) | > 45 µM (inactive) | 1.59 µM (inactive) | > 45 µM (inactive) | > 45 µM (inactive) | 2.43 µM (inactive) | > 45 µM (inactive) | 5.01 µM (inactive) | 6.32 µM (inactive) | > 45 µM (inactive) | > 45 µM (inactive) | > 100 µM (inactive) | > 45 µM (inactive) | > 45 µM (inactive) | > 45 µM (inactive)
CCOC(=O)C1=CN(C(=O)c2ccccc2)CCC1Cc1ccccc1 (stereo not given) | 13.7 µM (inactive) | 15.8 µM (inactive) | 20 µM (inactive) | 25.4 µM (inactive) | 43.6 µM (inactive) | 17.6 µM (inactive) | 25.8 µM (inactive) | 20.4 µM (inactive) | 17.7 µM (inactive) | 24 µM (inactive) | 13.5 µM (inactive) | 40.9 µM (inactive) | 9.04 µM (inactive) | 19.5 µM (inactive) | 18 µM (inactive) | 28.6 µM (inactive) | 21.5 µM (inactive) | 26.1 µM (inactive) | 27.3 µM (inactive) | 23.1 µM (inactive)
CCCCCCCCCCCC[C@@H](O)[C@H]1CC[C@H]([C@H](O)CCCC[C@H](O)CCCCC[C@@H](O)CC2=C[C@H](C)OC2=O)O1 | 1.87 µM (inactive) | 0.0168 µM (active) | 1.25 µM (inactive) | 2.09 µM (inactive) | 3.11 µM (inactive) | 0.213 µM (active) | 10 µM (inactive) | 1.98 µM (inactive) | 3.31 µM (inactive) | 0.562 µM (active) | 0.362 µM (active) | 6.4 µM (inactive) | 0.103 µM (active) | 2.08 µM (inactive) | 1.18 µM (inactive) | 2.82 µM (inactive) | 2.97 µM (inactive) | 3.35 µM (inactive) | 0.61 µM (active) | 3.78 µM (inactive)
